# Tests used:
# [1] = system: Adjuvant Induced Arthritis in Rats; assay: Adjuvant-induced arthritis in the rat; format: in vivo, rat (Royal Hart, Wistar strain)
# Procedure: (B) Adjuvant-induced arthritis in the rat […] Groups of three Royal Hart, Wistar strain rats weighing 200±10 g. each were injected intradermally in the right hind paw with Freund's adjuvant (dried human tubercle bacilli in a mineral oil vehicle) at a dose of 2 mg./kg. of body weight. The test compounds were administered orally in a 1.5% starch vehicle at various doses once daily on days 0 to 13 post challenge. Control rats were treated in a similar manner, but given only starch vehicle. On the 14th and 21st day post challenge the diameter of the injected paw was measured by micrometer caliper. The volume of inflamed paws were estimated from these measurements and the effects of each compound are expressed as percent inhibition of swelling as compared to controls. Table II records the results of these tests conducted with representative compounds of this invention and known anti-inflammatory agents. The active compounds of this invention suppress the progression of the arthritis and associated joint deterioration.
# [2] = system: Carrageenin-Induced Edema; assay: Carrageenin-induced edema in the rat; format: in vivo, rat (Royal Hart, Wistar strain); details: oral gavage, 5 hours after drug, 4 hours after carrageenin, dose not given, * p = <.05 by t test
# Procedure: (A) Carrageenin-induced edema in the rat
# In determining the acute anti-inflammatory activity of the cis-2-[2(or 3)-thenoyl]-3-hydroxy-2-alkenenitriles of the present invention, Royal Hart, Wistar strain rats, ranging in weight from 80 to 90 grams were used. The rats were fasted overnight prior to dosing but had free access to water. The test compounds were administered in aqueous suspension, by gavage, in a volume of 1.7 ml. per 50 grams of rat [corresponds to hydration volume used by Winter, et al., Proc. Soc. […] The phlogistic agent used was carrageenin prepared as a sterile 1% suspension in 0.9% aqueous sodium chloride for routine testing. A volume of 0.05 ml. was injected through a 26 gauge needle into the plantar tissue of the right hind paw. Measurements were made 5 hours after drug administration (4 hours after carrageenin challenge). Volumes of both the normal and carrageenin inflammed feet were determined. The difference between the two measurements is considered to be the increased edema due to the carrageenin administration. Results are expressed as a C/T efficacy ratio (edema of control animals/edema of treated animals).
# [3] = oral 25 mg./kg. daily days 0 to 13, * p = <.05 by t test
# [4] = oral 50 mg./kg. daily days 0 to 13, * (where printed) p = <.05 by t test
# [5] = oral 50 mg./kg. daily days 0 to 13, no asterisk
Compound,"% Inhibition of Swelling, Day 14 [1, 3] [%]","% Inhibition of Swelling, Day 21 [1, 3] [%]",C/T Ratio (edema of control animals/edema of treated animals) [2],"% Inhibition of Swelling, Day 14 [1, 4] [%]","% Inhibition of Swelling, Day 21 [1, 5] [%]"
C/C(O)=C(\C#N)C(=O)c1ccc(Cl)s1 [Cis-2-(5-chloro-2-thenoyl)-3-hydroxycrotononitrile],49,31,,,
C/C(O)=C(\C#N)C(=O)c1ccsc1 [Cis-2-(3-thenoyl)-3-hydroxycrotononitrile],,,2.42,38,19
C/C(O)=C(\C#N)C(=O)c1cccs1 [Cis-2-(2-thenoyl)-3-hydroxycrotononitrile],,,2.04,42,6
